Data on seven compounds can be found in patent US10072005B2, “4-azaindole derivatives” (EISAI R&D MANAGEMENT CO., LTD., priority 2013, dated 2018).

Each structure is given as a SMILES string.

One experiment deals with mAChR M4 (Homo sapiens (Human), UniProt P08173). As to the kind of experiment: In vitro cellular calcium flux assay, PAM, NAM and agonist modes, mAChR M4. In kind it is cell-based. How it is done: (§1) Baby hamster kidney cells stably expressing human or rat mAChR M1 to M5 were utilised for primary and selectivity profiling activities. mAChR M2 and M4 cell lines also stably expressed the chimeric Gαqi5 G-protein.
(§2) Human mAChR M1, M3, M5 and rat M1 cells were grown in low glucose Dulbecco's Modified Eagle's Medium (DMEM) medium plus heat inactivated 10% fetal bovine serum (HI FBS) and 500 μg/ml hygromycin B^1. Human mAChR M2 and M4 cells were maintained as above with^2 the addition of 500 μg/ml G418 to the media. Cells were maintained in culture at 37° C./5% CO2 and passaged twice weekly by treatment with 0.05% Trypsin/EDTA detachment solution, centrifugation (200 g, 5 min) and re-suspension in fresh media. Following cell expansion, cells were cryopreserved at −80° C. by treatment with 0.05% Trypsin/EDTA detachment solution, centrifugation (200 g, 5 min) and re-suspension of the pellet in freezing media (90% HI FBS/10% DMSO^3) at 15E6 cells/ml^4.
(§3) Prior to assaying, cells were prepared by thawing at 37° C. in a water bath, centrifugation (200 g, 5 min) and re-suspension of the pellet in fresh media. 15000 cells per well were seeded in black, clear bottomed 384-well Greiner Bio-One plates in plating medium (DMEM/10% HI FBS) and incubated overnight at 37 C/5% CO2.
(§4) On the day of the assay, media was removed from each well and replaced with 50 μl^5 assay buffer (HBSS with 20 mM HEPES and 2.5 mM Probenecid) containing the calcium indicator, Calcium 4 (Molecular Devices). Cells were then incubated at 37° C./5% CO2 for 30 min and at room temperature.
(§5) Compound preparation was carried out by generation of 11-point, 1 in 3 serial dilution concentration response curves in 100% DMSO. Compound was then diluted 1 in 65^6 with assay buffer (HBSS with 20 mM HEPES and 2.5 mM Probenecid) prior to the addition of 10 ul^7 to the cells using a Tetra fluorometric imaging plate reader (Molecular Devices)^8. Compound driven increases in intracellular calcium flux was measured as an increase in fluorescence (494Ex, 516Em)^9.
(§6) Positive allosteric modulator pEC50 values and antagonist pIC50 values for each compound were then determined. […] The points of modification and the alternate reagents, concentrations or equipment employed in these examples were: ^1200 μg/ml hygromycin B; ^2G418 not added; ^3CELLBANKER 1; ^410E6; ^5 40 μl; ^6 1 in 99; ^7 20 μl; ^8FDSS6000 (Hamamatsu Photonics); ^9(480Ex, 540Em); ^10Spotfire (TIBCO).
(§7) Certain compounds were tested in PAM, NAM and agonist modes against mAChR M2, M3, M4 and M5.

The target in a further experiment is mAChR M3 (Homo sapiens (Human), UniProt P20309). As to the kind of experiment: In vitro cellular calcium flux assay, PAM, NAM and agonist modes, mAChR M3. In kind it is cell-based. As for the experimental part:
as §1, §2, §3, §4, §5, §6, §7
In general terms: Calcium assays in cells follow changes in intracellular calcium, usually with a dye or a luminescent sensor.

A further experiment addresses mAChR M1 (Homo sapiens, UniProt P11229). As to the kind of experiment: In vitro cellular calcium flux assay, positive allosteric modulation of mAChR M1. Format: cell-based. The conditions noted are these: BHK cells expressing mAChR M1; EC20 carbachol; Examples 76-80 and 82-89 slightly modified procedure. The method, boiled down:
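Baby hamster kidney cells stably expressing human mAChR M1, loaded with Calcium 4 dye in HBSS/20 mM HEPES/2.5 mM probenecid for 30 min at 37 °C. An 11-point 1-in-3 compound dilution series was added and calcium rise read as fluorescence; positive allosteric modulator pEC50 and antagonist pIC50 derived.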

In the next experiment the target is mAChR M2 (Homo sapiens (Human), UniProt P08172). As to the kind of experiment: In vitro cellular calcium flux assay, PAM, NAM and agonist modes, mAChR M2. Format: cell-based. As for the experimental part: as §1, §2, §3, §4, §5, §6, §7
For another experiment, the system named is Male Lister Hooded rats. As to the kind of experiment: Novel Object Recognition test. In kind it is in vivo. Conditions: rat, 24 h delay. How it is done: The Novel Object Recognition test (NOR) is based on the greater spontaneous exploration of a novel object, compared with a familiar object, observed in rodents (Behav. Brain Res., 1988, 31(1), 47-59). […] Therefore, it is considered to be analogous to recognition memory tests used in human clinical testing. Male Lister Hooded rats were assessed for object recognition in a test apparatus comprising of a perspex test arena housed within a sound attenuating chamber. Video images of behaviour were captured by digital camera and recorded to a computer. Rats were habituated to the test arena on four occasions prior to testing. Habituation sessions replicated the test day sequence exactly with the exception of object presentation. On test days, each rat was placed into the test arena and 3 minutes later the rat was presented with two identical objects (plastic shapes). The time spent actively exploring the objects during a 3-minute test period (T1) was recorded. Following T1 rats were returned to home cages. After 24 hours each rat was again placed in the test arena and 3 minutes later was presented with one of the now familiar objects and a novel object, and again the time spent actively exploring the objects during a 3-minute test period (T2) was recorded. The presentation order and position of objects (left/right) was randomised within groups to prevent bias from order or place preference. Objects were cleaned with 70% ethanol solution between trials to remove any olfactory/taste cues. Compounds were administered by oral gavage at an appropriate pre-treatment time prior to T1 and T2 (n=12) at dosage ranges between 0.03 and 3 mg/kg. In some experiments the 5-HT6 receptor antagonist N-(3,5-dichloro-2-methoxyphenyl)-4-methoxy-3-(piperazin-1-yl)benzenesulfonamide (CAS 402713-80-8) (10 mg/kg p.o.; 4 h pre-treatment time) was included as a positive control. Vehicle controls (1% methylcellulose in water) were included for comparison in each study. Results are expressed as the d2 index (difference in time spent exploring novel and familiar objects/total object exploration in T2).

The next experiment deals with mAChR M5 (Homo sapiens (Human), UniProt P08912). As to the kind of experiment: In vitro cellular calcium flux assay, PAM, NAM and agonist modes, mAChR M5. Format: cell-based. As for the experimental part: as §1, §2, §3, §4, §5, §6, §7
Sequence of mAChR M5 (P08912 whole entry): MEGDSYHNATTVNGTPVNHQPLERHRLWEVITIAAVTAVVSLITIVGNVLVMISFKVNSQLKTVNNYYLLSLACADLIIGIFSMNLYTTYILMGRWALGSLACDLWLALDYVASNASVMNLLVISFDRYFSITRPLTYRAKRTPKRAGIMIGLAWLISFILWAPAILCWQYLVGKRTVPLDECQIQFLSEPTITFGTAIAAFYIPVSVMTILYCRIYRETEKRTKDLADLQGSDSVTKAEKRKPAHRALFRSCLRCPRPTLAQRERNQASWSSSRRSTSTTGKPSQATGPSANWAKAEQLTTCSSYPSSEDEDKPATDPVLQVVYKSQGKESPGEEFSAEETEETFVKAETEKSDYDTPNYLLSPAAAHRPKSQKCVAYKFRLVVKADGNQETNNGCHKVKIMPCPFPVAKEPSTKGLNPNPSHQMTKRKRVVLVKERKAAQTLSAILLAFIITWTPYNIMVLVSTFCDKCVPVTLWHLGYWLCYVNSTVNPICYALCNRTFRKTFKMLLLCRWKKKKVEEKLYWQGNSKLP

Sequence of mAChR M3 (P20309 whole entry, looked up): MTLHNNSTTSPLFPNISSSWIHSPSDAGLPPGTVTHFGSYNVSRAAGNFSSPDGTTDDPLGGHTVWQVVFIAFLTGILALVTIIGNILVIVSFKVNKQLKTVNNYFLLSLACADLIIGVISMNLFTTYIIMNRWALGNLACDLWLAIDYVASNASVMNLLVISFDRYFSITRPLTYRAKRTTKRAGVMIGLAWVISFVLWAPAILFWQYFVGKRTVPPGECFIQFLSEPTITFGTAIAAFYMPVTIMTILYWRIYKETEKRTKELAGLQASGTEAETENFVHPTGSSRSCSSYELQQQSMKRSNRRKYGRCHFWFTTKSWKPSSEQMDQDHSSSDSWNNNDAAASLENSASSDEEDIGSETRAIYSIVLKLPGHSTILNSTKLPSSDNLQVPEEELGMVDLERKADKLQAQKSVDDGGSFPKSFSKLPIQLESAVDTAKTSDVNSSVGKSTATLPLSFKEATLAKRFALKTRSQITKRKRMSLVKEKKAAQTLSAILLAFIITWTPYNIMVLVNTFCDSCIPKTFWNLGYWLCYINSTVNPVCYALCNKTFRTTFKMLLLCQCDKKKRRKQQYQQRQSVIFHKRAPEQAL
Sequence of mAChR M1 (P11229 whole entry, looked up): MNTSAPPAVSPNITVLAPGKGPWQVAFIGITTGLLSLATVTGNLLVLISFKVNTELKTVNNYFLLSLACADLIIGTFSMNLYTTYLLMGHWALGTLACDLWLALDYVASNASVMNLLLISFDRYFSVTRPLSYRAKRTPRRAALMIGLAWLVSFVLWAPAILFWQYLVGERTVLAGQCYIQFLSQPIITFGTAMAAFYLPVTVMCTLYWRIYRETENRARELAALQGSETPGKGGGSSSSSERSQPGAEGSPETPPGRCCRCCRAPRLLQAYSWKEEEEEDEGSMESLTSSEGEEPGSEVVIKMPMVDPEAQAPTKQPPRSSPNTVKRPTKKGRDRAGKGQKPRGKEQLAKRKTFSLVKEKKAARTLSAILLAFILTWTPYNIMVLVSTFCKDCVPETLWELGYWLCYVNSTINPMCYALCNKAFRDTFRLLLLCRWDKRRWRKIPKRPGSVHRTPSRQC
Sequence of mAChR M4 (P08173 whole entry): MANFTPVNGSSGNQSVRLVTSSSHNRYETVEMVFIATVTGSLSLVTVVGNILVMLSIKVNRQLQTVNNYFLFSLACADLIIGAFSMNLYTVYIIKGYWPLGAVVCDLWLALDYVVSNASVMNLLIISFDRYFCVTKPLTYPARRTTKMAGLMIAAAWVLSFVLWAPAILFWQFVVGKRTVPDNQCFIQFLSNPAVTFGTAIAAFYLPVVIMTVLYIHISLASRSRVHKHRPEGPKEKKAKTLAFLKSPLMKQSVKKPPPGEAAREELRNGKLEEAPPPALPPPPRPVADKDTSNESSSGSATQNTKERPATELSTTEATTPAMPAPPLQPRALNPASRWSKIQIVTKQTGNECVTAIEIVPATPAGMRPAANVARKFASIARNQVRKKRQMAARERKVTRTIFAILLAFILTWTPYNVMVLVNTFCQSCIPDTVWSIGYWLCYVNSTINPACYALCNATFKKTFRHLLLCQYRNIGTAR
Sequence of mAChR M2 (P08172 whole entry): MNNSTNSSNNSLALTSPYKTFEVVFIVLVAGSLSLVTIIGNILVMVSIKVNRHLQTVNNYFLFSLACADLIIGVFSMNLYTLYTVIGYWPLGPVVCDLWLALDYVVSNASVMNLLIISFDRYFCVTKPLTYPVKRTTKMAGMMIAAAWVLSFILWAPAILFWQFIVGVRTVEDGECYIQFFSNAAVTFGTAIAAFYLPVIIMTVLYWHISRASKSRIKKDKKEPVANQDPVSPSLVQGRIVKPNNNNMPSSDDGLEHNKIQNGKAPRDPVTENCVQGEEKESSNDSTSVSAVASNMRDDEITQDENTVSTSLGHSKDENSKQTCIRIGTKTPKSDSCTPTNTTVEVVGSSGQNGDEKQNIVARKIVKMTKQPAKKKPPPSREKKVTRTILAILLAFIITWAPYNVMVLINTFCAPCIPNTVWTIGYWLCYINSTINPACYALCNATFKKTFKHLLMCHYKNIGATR

For `Cc1cc(Cn2cc(C(=O)N[C@H]3CCCC[C@@H]3O)c3ncccc32)ccc1F` [Example 6, 1-(4-Fluoro-3-methylbenzyl)-N-((1S,2S)-2-hydroxycyclohexyl)-1H-pyrrolo[3,2-b]pyridine-3-carboxamide], the 50% effective concentration (EC50) on mAChR M4, on mAChR M3, on mAChR M2 and on mAChR M5 was greater than 10 µM in each case. On mAChR M1, the “pEC50 for positive allosteric modulation” value is given as 6.7. Besides, the figures for the “d2 index [mean ± SEM]” value in the experiment with Male Lister Hooded rats (0.3 mg/kg p.o.), with Male Lister Hooded rats (1 mg/kg p.o.) and with Male Lister Hooded rats (3 mg/kg p.o.) were “[0.11 ± 0.09]”, “[0.27 ± 0.08]*” and “[0.36 ± 0.09]**”, respectively.

Regarding `COc1ccc(Cn2cc(C(=O)N[C@H]3CCCC[C@@H]3O)c3nccc(C)c32)cc1F` [Example 13, 1-(3-Fluoro-4-methoxybenzyl)-N-((1S,2S)-2-hydroxycyclohexyl)-7-methyl-1H-pyrrolo[3,2-b]pyridine-3-carboxamide], the EC50 on mAChR M4, at mAChR M3, at mAChR M2 and on mAChR M5 was greater than 10 µM each time. The “pEC50 for positive allosteric modulation” value on mAChR M1 is recorded as 7.9. Moreover, the figures for the “d2 index [mean ± SEM]” value in the experiment on Male Lister Hooded rats (0.3 mg/kg p.o.), in the experiment on Male Lister Hooded rats (1 mg/kg p.o.) and in the experiment with Male Lister Hooded rats (3 mg/kg p.o.) were “[0.09 ± 0.05]”, “[0.13 ± 0.07]” and “[0.25 ± 0.09]*”, respectively.

Take `Cc1ccnc2c(C(=O)N[C@H]3CCCC[C@@H]3O)cn(Cc3ccc(F)cc3)c12` [Example 10, 1-(4-Fluorobenzyl)-N-((1S,2S)-2-hydroxycyclohexyl)-7-methyl-1H-pyrrolo[3,2-b]pyridine-3-carboxamide]: the EC50 at mAChR M4, on mAChR M3, at mAChR M2 and at mAChR M5 was greater than 10 µM each time. In addition, the “pEC50 for positive allosteric modulation” value on mAChR M1 is given as 7.7. For the same compound, the figures for the “d2 index [mean ± SEM]” value in the experiment with Male Lister Hooded rats (0.03 mg/kg p.o.), with Male Lister Hooded rats (0.1 mg/kg p.o.) and in the experiment with Male Lister Hooded rats (0.3 mg/kg p.o.) were “[0.18 ± 0.10]”, “[0.18 ± 0.09]” and “[0.30 ± 0.08]**”, respectively.

`Cc1ccnc2c(C(=O)N[C@H]3CCCC[C@@H]3O)cn(Cc3cccc(F)c3F)c12` [Example 11, 1-(2,3-Difluorobenzyl)-N-((1S,2S)-2-hydroxycyclohexyl)-7-methyl-1H-pyrrolo[3,2-b]pyridine-3-carboxamide]: the 50% effective concentration (EC50) at mAChR M4, at mAChR M3, at mAChR M2 and at mAChR M5 was greater than 10 µM each time. Further, at mAChR M1, the “pEC50 for positive allosteric modulation” value was found to be 6.9. Also, the “d2 index [mean ± SEM]” value in the experiment on Male Lister Hooded rats (0.3 mg/kg p.o.) was “[0.24 ± 0.06]”; in the experiment with Male Lister Hooded rats (1 mg/kg p.o.), “[0.24 ± 0.07]”; in the experiment with Male Lister Hooded rats (3 mg/kg p.o.), “[0.31 ± 0.06]**”.

For the compound `O=C(NC1CCC(F)(F)C[C@@H]1O)c1cn(Cc2ccc(F)cc2)c2cccnc12` (single isomer, unassigned) [Example 34, N-(trans-4,4-Difluoro-2-hydroxycyclohexyl)-1-(4-fluorobenzyl)-1H-pyrrolo[3,2-b]pyridine-3-carboxamide], the concentration for a half-maximal effect (EC50) at mAChR M4, on mAChR M3, at mAChR M2 and at mAChR M5 was greater than 10 µM in each case. Also, the “pEC50 for positive allosteric modulation” value at mAChR M1 came to 6.9. Also, the “d2 index [mean ± SEM]” value was “[0.08 ± 0.08]” in the experiment on Male Lister Hooded rats (0.1 mg/kg p.o.), “[0.24 ± 0.05]*” in the experiment on Male Lister Hooded rats (0.3 mg/kg p.o.) and “[0.23 ± 0.06]*” in the experiment with Male Lister Hooded rats (1 mg/kg p.o.).

Consider `O=C(N[C@H]1CCCC[C@@H]1O)c1cn(Cc2cccc(F)c2F)c2cccnc12` [Example 8, 1-(2,3-Difluorobenzyl)-N-((1S,2S)-2-hydroxycyclohexyl)-1H-pyrrolo[3,2-b]pyridine-3-carboxamide], for which the concentration giving a half-maximal response (EC50) at mAChR M4, at mAChR M3, on mAChR M2 and at mAChR M5 was greater than 10 µM throughout. For the same compound, the “pEC50 for positive allosteric modulation” value on mAChR M1 was found to be 6.5. The “d2 index [mean ± SEM]” value was “[0.00 ± 0.07]” in the experiment on Male Lister Hooded rats (0.03 mg/kg p.o.), “[0.09 ± 0.06]” with Male Lister Hooded rats (0.1 mg/kg p.o.) and “[0.34 ± 0.06]***” in the experiment with Male Lister Hooded rats (0.3 mg/kg p.o.).

For `COc1ccc(Cn2cc(C(=O)N[C@H]3CCCC[C@@H]3O)c3nccc(C)c32)cc1` [Example 12, N-((1S,2S)-2-Hydroxycyclohexyl)-1-(4-methoxybenzyl)-7-methyl-1H-pyrrolo[3,2-b]pyridine-3-carboxamide], the EC50 on mAChR M4, at mAChR M3, at mAChR M2 and at mAChR M5 was greater than 10 µM each time. Moreover, the “pEC50 for positive allosteric modulation” value at mAChR M1 is 7.7. The “d2 index [mean ± SEM]” value with Male Lister Hooded rats (0.3 mg/kg p.o.) is “[0.13 ± 0.06]”; in the experiment with Male Lister Hooded rats (1 mg/kg p.o.), “[0.30 ± 0.05]***”; in the experiment on Male Lister Hooded rats (3 mg/kg p.o.), “[0.33 ± 0.06]***”.
